In brackets after ≈: the same amount, converted by molar mass.
Legend:
Assay type in all cases: functional
Klebsiella pneumoniae = assay: Antibacterial activity against Klebsiella pneumoniae ATCC 31488 after 24 hrs by broth micro dilution assay; conditions: ATCC 31488, 24 h
Staphylococcus aureus = assay: Antibacterial activity against Staphylococcus aureus ATCC 2937 after 24 hrs by broth micro dilution assay; conditions: ATCC 2937, 24 h
Fusarium oxysporum = assay: Antifungal activity against Fusarium oxysporum by food poison technique; conditions: read-out: ED50 (the source's name)
Aspergillus niger = assay: Antifungal activity against Aspergillus niger by food poison technique; conditions: read-out: ED50 (the source's name)
Pseudomonas aeruginosa = assay: Antibacterial activity against Pseudomonas aeruginosa ATCC 9027 after 24 hrs by broth micro dilution assay; conditions: ATCC 9027, 24 h
Bacillus subtilis = assay: Antibacterial activity against Bacillus subtilis ATCC 12711 after 24 hrs by broth micro dilution assay; conditions: ATCC 12711, 24 h
Escherichia coli = assay: Antibacterial activity against Escherichia coli ATCC 8739 after 24 hrs by broth micro dilution assay; conditions: ATCC 8739, 24 h

Compound `CCn1cc(-c2nnc(S)n2/N=C/c2ccc(Br)cc2)c(=O)c2ccc(C)nc21` has an MIC90 (Klebsiella pneumoniae) of 250 µg/mL (≈ 533 µM), an MIC90 (Staphylococcus aureus) of 125 µg/mL (≈ 266 µM) and an EC50 (Fusarium oxysporum) of 107 µg/mL (≈ 227 µM). For the same compound, the EC50 (Aspergillus niger) was 144 µg/mL (≈ 306 µM), the MIC90 (Pseudomonas aeruginosa) was 62 µg/mL (≈ 132 µM) and the MIC90 (Bacillus subtilis) was 250 µg/mL (≈ 533 µM). The MIC90 (Escherichia coli) was 250 µg/mL (≈ 533 µM).
`CCn1cc(-c2nnc(S)n2N)c(=O)c2ccc(C)nc21` was tested, and the MIC90 (Klebsiella pneumoniae) was 63 µg/mL (≈ 208 µM), the MIC90 (Staphylococcus aureus) was 63 µg/mL (≈ 208 µM) and the EC50 (Fusarium oxysporum) was 382 µg/mL (≈ 1260 µM). It also gave an EC50 (Aspergillus niger) of 567 µg/mL (≈ 1880 µM), an MIC90 (Pseudomonas aeruginosa) of 63 µg/mL (≈ 208 µM) and an MIC90 (Bacillus subtilis) of 63 µg/mL (≈ 208 µM). It also gave an MIC90 (Escherichia coli) of 125 µg/mL (≈ 413 µM).
`CCn1cc(-c2nnc(S)n2/N=C/c2ccccc2)c(=O)c2ccc(C)nc21` gave an MIC90 (Klebsiella pneumoniae) of 16 µg/mL (≈ 41 µM), an MIC90 (Staphylococcus aureus) of 250 µg/mL (≈ 640 µM) and an EC50 (Fusarium oxysporum) of 78.2 µg/mL (≈ 200 µM). The EC50 (Aspergillus niger) was 77.7 µg/mL (≈ 199 µM), the MIC90 (Pseudomonas aeruginosa) was 16 µg/mL (≈ 41 µM) and the MIC90 (Bacillus subtilis) was 250 µg/mL (≈ 640 µM). The MIC90 (Escherichia coli) was 16 µg/mL (≈ 41 µM).
`CCn1cc(-c2nnc(S)n2/N=C/c2ccc(F)cc2)c(=O)c2ccc(C)nc21` was tested, and the MIC90 (Klebsiella pneumoniae) was 250 µg/mL (≈ 612 µM), the MIC90 (Staphylococcus aureus) was 125 µg/mL (≈ 306 µM) and the EC50 (Fusarium oxysporum) was 163 µg/mL (≈ 400 µM). The EC50 (Aspergillus niger) was 134 µg/mL (≈ 327 µM), the MIC90 (Pseudomonas aeruginosa) was 16 µg/mL (≈ 39.2 µM) and the MIC90 (Bacillus subtilis) was 63 µg/mL (≈ 154 µM). For the same compound, the MIC90 (Escherichia coli) was 250 µg/mL (≈ 612 µM).
`CCn1cc(-c2nnc(S)n2/N=C/c2ccc(Cl)cc2)c(=O)c2ccc(C)nc21` showed an MIC90 (Klebsiella pneumoniae) of 250 µg/mL (≈ 588 µM), an MIC90 (Staphylococcus aureus) of 125 µg/mL (≈ 294 µM) and an EC50 (Fusarium oxysporum) of 79.5 µg/mL (≈ 187 µM). For the same compound, the EC50 (Aspergillus niger) was 120 µg/mL (≈ 282 µM), the MIC90 (Pseudomonas aeruginosa) was 16 µg/mL (≈ 37.7 µM) and the MIC90 (Bacillus subtilis) was 16 µg/mL (≈ 37.7 µM). The MIC90 (Escherichia coli) was 250 µg/mL (≈ 588 µM).
`CCn1cc(-c2nnc(S)n2/N=C/c2cccc(Br)c2)c(=O)c2ccc(C)nc21` was tested, and the MIC90 (Klebsiella pneumoniae) was 31 µg/mL (≈ 66 µM), the MIC90 (Staphylococcus aureus) was 125 µg/mL (≈ 266 µM) and the EC50 (Fusarium oxysporum) was 74.1 µg/mL (≈ 158 µM). For the same compound, the EC50 (Aspergillus niger) was 111 µg/mL (≈ 237 µM), the MIC90 (Pseudomonas aeruginosa) was 16 µg/mL (≈ 34.1 µM) and the MIC90 (Bacillus subtilis) was 16 µg/mL (≈ 34.1 µM). For the same compound, the MIC90 (Escherichia coli) was 125 µg/mL (≈ 266 µM).
`CCn1cc(-c2nnc(S)n2/N=C/c2cccc([N+](=O)[O-])c2)c(=O)c2ccc(C)nc21` was tested, and the MIC90 (Klebsiella pneumoniae) was 250 µg/mL (≈ 574 µM), the MIC90 (Staphylococcus aureus) was 125 µg/mL (≈ 287 µM) and the EC50 (Fusarium oxysporum) was 138 µg/mL (≈ 317 µM). The EC50 (Aspergillus niger) was 161 µg/mL (≈ 369 µM), the MIC90 (Pseudomonas aeruginosa) was 63 µg/mL (≈ 145 µM) and the MIC90 (Bacillus subtilis) was 125 µg/mL (≈ 287 µM). For the same compound, the MIC90 (Escherichia coli) was 125 µg/mL (≈ 287 µM).
`CCn1cc(-c2nnc(S)n2/N=C/c2ccc([N+](=O)[O-])cc2)c(=O)c2ccc(C)nc21` gave an MIC90 (Klebsiella pneumoniae) of 63 µg/mL (≈ 145 µM), an MIC90 (Staphylococcus aureus) of 125 µg/mL (≈ 287 µM) and an EC50 (Fusarium oxysporum) of 100 µg/mL (≈ 230 µM). The EC50 (Aspergillus niger) was 149 µg/mL (≈ 342 µM), the MIC90 (Pseudomonas aeruginosa) was 63 µg/mL (≈ 145 µM) and the MIC90 (Bacillus subtilis) was 125 µg/mL (≈ 287 µM). For the same compound, the MIC90 (Escherichia coli) was 125 µg/mL (≈ 287 µM).
`CCn1cc(-c2nnc(S)n2/N=C/c2ccc(C#N)cc2)c(=O)c2ccc(C)nc21` was tested, and the MIC90 (Klebsiella pneumoniae) was 63 µg/mL (≈ 152 µM), the MIC90 (Staphylococcus aureus) was 63 µg/mL (≈ 152 µM) and the EC50 (Fusarium oxysporum) was 177 µg/mL (≈ 426 µM). The EC50 (Aspergillus niger) was 156 µg/mL (≈ 376 µM), the MIC90 (Pseudomonas aeruginosa) was 63 µg/mL (≈ 152 µM) and the MIC90 (Bacillus subtilis) was 63 µg/mL (≈ 152 µM). For the same compound, the MIC90 (Escherichia coli) was 125 µg/mL (≈ 301 µM).
`CCn1cc(-c2nnc(S)n2/N=C/c2ccc(C(F)(F)F)cc2)c(=O)c2ccc(C)nc21` showed an MIC90 (Klebsiella pneumoniae) of 125 µg/mL (≈ 273 µM), an MIC90 (Staphylococcus aureus) of 250 µg/mL (≈ 545 µM) and an EC50 (Fusarium oxysporum) of 101 µg/mL (≈ 220 µM). For the same compound, the EC50 (Aspergillus niger) was 299 µg/mL (≈ 652 µM), the MIC90 (Pseudomonas aeruginosa) was 63 µg/mL (≈ 137 µM) and the MIC90 (Bacillus subtilis) was 63 µg/mL (≈ 137 µM). For the same compound, the MIC90 (Escherichia coli) was 250 µg/mL (≈ 545 µM).
Work on `CCn1cc(-c2nnc(S)n2/N=C/c2ccc(O)cc2)c(=O)c2ccc(C)nc21` yielded an MIC90 (Klebsiella pneumoniae) of 125 µg/mL (≈ 308 µM), an MIC90 (Staphylococcus aureus) of 125 µg/mL (≈ 308 µM) and an EC50 (Fusarium oxysporum) of 203 µg/mL (≈ 500 µM). For the same compound, the EC50 (Aspergillus niger) was 549 µg/mL (≈ 1350 µM), the MIC90 (Pseudomonas aeruginosa) was 63 µg/mL (≈ 155 µM) and the MIC90 (Bacillus subtilis) was 125 µg/mL (≈ 308 µM). The MIC90 (Escherichia coli) was 125 µg/mL (≈ 308 µM).
With `CCn1cc(-c2nnc(S)n2/N=C/c2ccc(OC)cc2)c(=O)c2ccc(C)nc21` the MIC90 (Klebsiella pneumoniae) was 31 µg/mL (≈ 73.7 µM), the MIC90 (Staphylococcus aureus) was 125 µg/mL (≈ 297 µM) and the EC50 (Fusarium oxysporum) was 152 µg/mL (≈ 362 µM). The EC50 (Aspergillus niger) was 105 µg/mL (≈ 249 µM), the MIC90 (Pseudomonas aeruginosa) was 16 µg/mL (≈ 38.1 µM) and the MIC90 (Bacillus subtilis) was 16 µg/mL (≈ 38.1 µM). For the same compound, the MIC90 (Escherichia coli) was 250 µg/mL (≈ 595 µM).
With `CCOc1ccc(/C=N/n2c(S)nnc2-c2cn(CC)c3nc(C)ccc3c2=O)cc1` the MIC90 (Klebsiella pneumoniae) was 63 µg/mL (≈ 145 µM), the MIC90 (Staphylococcus aureus) was 125 µg/mL (≈ 288 µM) and the EC50 (Fusarium oxysporum) was 89.3 µg/mL (≈ 206 µM). The EC50 (Aspergillus niger) was 86.6 µg/mL (≈ 199 µM), the MIC90 (Pseudomonas aeruginosa) was 63 µg/mL (≈ 145 µM) and the MIC90 (Bacillus subtilis) was 63 µg/mL (≈ 145 µM). It also gave an MIC90 (Escherichia coli) of 125 µg/mL (≈ 288 µM).
Compound `CCn1cc(-c2nnc(S)n2/N=C/c2ccc(C)cc2)c(=O)c2ccc(C)nc21` has an MIC90 (Klebsiella pneumoniae) of 63 µg/mL (≈ 156 µM), an MIC90 (Staphylococcus aureus) of 63 µg/mL (≈ 156 µM) and an EC50 (Fusarium oxysporum) of 205 µg/mL (≈ 507 µM). For the same compound, the EC50 (Aspergillus niger) was 76.6 µg/mL (≈ 189 µM), the MIC90 (Pseudomonas aeruginosa) was 63 µg/mL (≈ 156 µM) and the MIC90 (Bacillus subtilis) was 125 µg/mL (≈ 309 µM). The MIC90 (Escherichia coli) was 125 µg/mL (≈ 309 µM).
Compound `CCc1ccc(/C=N/n2c(S)nnc2-c2cn(CC)c3nc(C)ccc3c2=O)cc1` has an MIC90 (Klebsiella pneumoniae) of 63 µg/mL (≈ 151 µM), an MIC90 (Staphylococcus aureus) of 63 µg/mL (≈ 151 µM) and an EC50 (Fusarium oxysporum) of 191 µg/mL (≈ 456 µM). It also gave an EC50 (Aspergillus niger) of 229 µg/mL (≈ 547 µM), an MIC90 (Pseudomonas aeruginosa) of 63 µg/mL (≈ 151 µM) and an MIC90 (Bacillus subtilis) of 63 µg/mL (≈ 151 µM). The MIC90 (Escherichia coli) was 250 µg/mL (≈ 597 µM).
`CCn1cc(-c2nnc(S)n2/N=C/c2ccc(C(C)C)cc2)c(=O)c2ccc(C)nc21` gave an MIC90 (Klebsiella pneumoniae) of 125 µg/mL (≈ 289 µM), an MIC90 (Staphylococcus aureus) of 63 µg/mL (≈ 146 µM) and an EC50 (Fusarium oxysporum) of 106 µg/mL (≈ 246 µM). It also gave an EC50 (Aspergillus niger) of 113 µg/mL (≈ 262 µM), an MIC90 (Pseudomonas aeruginosa) of 16 µg/mL (≈ 37 µM) and an MIC90 (Bacillus subtilis) of 16 µg/mL (≈ 37 µM). It also gave an MIC90 (Escherichia coli) of 250 µg/mL (≈ 578 µM).
In the case of `CCn1cc(-c2nnc(S)n2/N=C/c2ccc(C(C)(C)C)cc2)c(=O)c2ccc(C)nc21`, the MIC90 (Klebsiella pneumoniae) is reported as 63 µg/mL (≈ 141 µM), the MIC90 (Staphylococcus aureus) is reported as 125 µg/mL (≈ 280 µM) and the EC50 (Fusarium oxysporum) is reported as 117 µg/mL (≈ 262 µM). It also gave an EC50 (Aspergillus niger) of 134 µg/mL (≈ 299 µM), an MIC90 (Pseudomonas aeruginosa) of 63 µg/mL (≈ 141 µM) and an MIC90 (Bacillus subtilis) of 31 µg/mL (≈ 69.4 µM). For the same compound, the MIC90 (Escherichia coli) was 63 µg/mL (≈ 141 µM).

Source: ChEMBL document CHEMBL1821658, “Synthesis, antimicrobial evaluation and QSAR analysis of novel nalidixic acid based 1,2,4-triazole derivatives” (2011)
